# Source: ChEMBL document CHEMBL3603789, “N-Lipidated Peptide Dimers: Effective Antibacterial Agents against Gram-Negative Pathogens through Lipopolysaccharide Permeabilization” (J Med Chem, 2015)
# Bridge positions count the residues as written; N and C are the ends. Peptide text beside a SMILES is read from it. I, II: the chains in the order shown. * marks the point of attachment. Myristoyl = CCCCCCCCCCCCCC(=O)*; Decanoyl = CCCCCCCCCC(=O)*; Butyryl = CCCC(=O)*
# Columns and labels:
# [1] = system: Klebsiella pneumoniae; test: Antibacterial activity against Klebsiella pneumoniae DM4299 after 24 hrs by broth microdilution method; format: functional; conditions: DM4299, 24 h
# [2] = system: Pseudomonas aeruginosa; test: Antibacterial activity against Pseudomonas aeruginosa DM23155 after 24 hrs by broth microdilution method; format: functional; conditions: DM23155, 24 h
# [3] = Toxicity in New Zealand white rabbit erythrocytes assessed as hemolytic activity after 60 mins; format: cell-based, Oryctolagus cuniculus; conditions: erythrocyte, 1 h
# [4] = system: Escherichia coli; test: Antibacterial activity against Escherichia coli ATCC 25922 after 24 hrs by broth microdilution method; format: functional; conditions: ATCC 25922, 24 h
# [5] = Induction of calcein leakage from DOPE/DOPG artificial membrane at 1:32 ratio of compound to lipid by fluorescence assay; format: physicochemical
# [6] = system: Lipopolysaccharide (LPS); test: Induction of Escherichia coli 0111:B4 LPS neutralization using p-nitroaniline assessed as concentration required to neutralize 50% after 1 hr by limulus amebocyte lysate assay
# [7] = system: Lipopolysaccharide (LPS); test: Displacement of dansylcadaverine from Escherichia coli 0111:B4 LPS at 15 to 30 uM after 5 mins by high-throughput fluorescence displacement assay
# [8] = system: Pseudomonas aeruginosa; test: Induction of cytoplasmic membrane disruption in Pseudomonas aeruginosa DM23155 assessed as membrane integrity at 1 to 2 times MIC after 1 hr by fluorescence assay; format: functional
# [9] = system: Pseudomonas aeruginosa; test: Induction of 1-N-phenylnaphthylamine uptake in Pseudomonas aeruginosa DM23155 at 400 uM after 1 hr by fluorescence assay relative to polymyxin B; format: functional
MIC [1] [µM],MIC [2] [µM],MIC [4] [µM],Activity [5],EC50 [6] [µM],Activity [7] [%],SMILES,HC10 [3] [µg/mL],Activity [8] [%],Activity [9] [%]
> 80,> 80,40,–,–,–,CCCC(=O)N[C@@H](CCCNC(=N)N)C(=O)NCC(=O)N[C@@H](CCCNC(=N)N)C(=O)N[C@@H](CCCCN)C(=O)N[C@H](C(=O)N[C@H](C(=O)N[C@@H](CCCNC(=N)N)C(=O)N[C@@H](CCCNC(=N)N)C(=O)N[C@@H](CCCCN)C(=O)N[C@@H](CCCCN)C(=O)O)C(C)C)C(C)C (Butyryl-RGRKVVRRKK-OH),> 10000,–,–
20,10,10,–,–,–,CCCCCCCCCC(=O)N[C@@H](CCCNC(=N)N)C(=O)NCC(=O)N[C@@H](CCCNC(=N)N)C(=O)N[C@@H](CCCCN)C(=O)NCC(=O)NCC(=O)N[C@@H](CCCNC(=N)N)C(=O)N[C@@H](CCCNC(=N)N)C(=O)N[C@@H](CCCCN)C(=O)N[C@@H](CCCCN)C(=O)O (Decanoyl-RGRKGGRRKK-OH),> 10000,–,–
10,6,6,–,–,–,CCCCCCCCCCCCCC(=O)N[C@@H](CCCNC(=N)N)C(=O)NCC(=O)N[C@@H](CCCNC(=N)N)C(=O)N[C@@H](CCCCN)C(=O)NCC(=O)NCC(=O)N[C@@H](CCCNC(=N)N)C(=O)N[C@@H](CCCNC(=N)N)C(=O)N[C@@H](CCCCN)C(=O)N[C@@H](CCCCN)C(=O)O (Myristoyl-RGRKGGRRKK-OH),6670,–,–
80,20,6,–,566,78,CCCCCCCCCC(=O)N[C@@H](CCCNC(=N)N)C(=O)NCC(=O)N[C@@H](CCCNC(=N)N)C(=O)N[C@@H](CCCCN)C(=O)N[C@H](C(=O)N[C@H](C(=O)N[C@@H](CCCNC(=N)N)C(=O)N[C@@H](CCCNC(=N)N)C(=O)N[C@@H](CCCCN)C(=O)N[C@@H](CCCCN)C(=O)O)C(C)C)C(C)C (Decanoyl-RGRKVVRRKK-OH),> 10000,–,–
> 80,80,10,–,–,–,CC(C)[C@H](NC(=O)[C@H](CCCCN)NC(=O)[C@H](CCCNC(=N)N)NC(=O)CNC(=O)[C@@H](N)CCCNC(=N)N)C(=O)N[C@H](C(=O)N[C@@H](CCCNC(=N)N)C(=O)N[C@@H](CCCNC(=N)N)C(=O)N[C@@H](CCCCN)C(=O)N[C@@H](CCCCN)C(=O)O)C(C)C (H-RGRKVVRRKK-OH),> 10000,–,–

# More lines, now with the values behind:
SMILES,MIC [1] [µM],MIC [2] [µM],MIC [4] [µM],Activity [5],EC50 [6] [µM],Activity [7] [%],HC10 [3] [µg/mL],Activity [8] [%],Activity [9] [%]
CC(=O)N[C@@H](CCCNC(=N)N)C(=O)NCC(=O)N[C@@H](CCCNC(=N)N)C(=O)N[C@@H](CCCCN)C(=O)N[C@H](C(=O)N[C@H](C(=O)N[C@@H](CCCNC(=N)N)C(=O)N[C@@H](CCCNC(=N)N)C(=O)NCCCC[C@H](NC(=O)[C@H](CCCNC(=N)N)NC(=O)[C@H](CCCNC(=N)N)NC(=O)[C@@H](NC(=O)[C@@H](NC(=O)[C@H](CCCCN)NC(=O)[C@H](CCCNC(=N)N)NC(=O)CNC(=O)[C@H](CCCNC(=N)N)NC(C)=O)C(C)C)C(C)C)C(=O)N[C@@H](CCCCN)C(=O)O)C(C)C)C(C)C (I: Ac-RGRKVVRRKK-OH / II: Ac-RGRKVVRR; amide I:9-II:C),6,6,6,Active,> 1000,75.7,> 10000,>80,–
CCCC(=O)N[C@@H](CCCNC(=N)N)C(=O)NCC(=O)N[C@@H](CCCNC(=N)N)C(=O)N[C@@H](CCCCN)C(=O)N[C@H](C(=O)N[C@H](C(=O)N[C@@H](CCCNC(=N)N)C(=O)N[C@@H](CCCNC(=N)N)C(=O)NCCCC[C@H](NC(=O)[C@H](CCCNC(=N)N)NC(=O)[C@H](CCCNC(=N)N)NC(=O)[C@@H](NC(=O)[C@@H](NC(=O)[C@H](CCCCN)NC(=O)[C@H](CCCNC(=N)N)NC(=O)CNC(=O)[C@H](CCCNC(=N)N)NC(=O)CCC)C(C)C)C(C)C)C(=O)N[C@@H](CCCCN)C(=O)O)C(C)C)C(C)C (I: Butyryl-RGRKVVRRKK-OH / II: Butyryl-RGRKVVRR; amide I:9-II:C),6,10,3,Active,> 1000,93.4,> 10000,>80,–
CC(=O)N[C@@H](CCCNC(=N)N)C(=O)NCC(=O)N[C@@H](CCCNC(=N)N)C(=O)N[C@@H](CCCCN)C(=O)NCC(=O)NCC(=O)N[C@@H](CCCNC(=N)N)C(=O)N[C@@H](CCCNC(=N)N)C(=O)NCCCC[C@H](NC(=O)[C@H](CCCNC(=N)N)NC(=O)[C@H](CCCNC(=N)N)NC(=O)CNC(=O)CNC(=O)[C@H](CCCCN)NC(=O)[C@H](CCCNC(=N)N)NC(=O)CNC(=O)[C@H](CCCNC(=N)N)NC(C)=O)C(=O)N[C@@H](CCCCN)C(=O)O (I: Ac-RGRKGGRRKK-OH / II: Ac-RGRKGGRR; amide I:9-II:C),3,6,1.5,–,> 1000,56.1,> 10000,–,1.6
N=C(N)NCCC[C@H](NC(=O)CNC(=O)[C@@H](N)CCCNC(=N)N)C(=O)N[C@@H](CCCCN)C(=O)NCC(=O)NCC(=O)N[C@@H](CCCNC(=N)N)C(=O)N[C@@H](CCCNC(=N)N)C(=O)N[C@@H](CCCCN)C(=O)N[C@@H](CCCCN)C(=O)O (H-RGRKGGRRKK-OH),> 80,> 80,20,–,–,–,> 10000,–,–
